A short description of data set [1]: Cytotoxic activity against NIH-3T3. Type of data set: cell-based.
Protocol: The concentration of the compounds used in the initial bioassays was 100 µM (antibiotic tests), 50 µM (cytotoxic tests), and 10 µM (enzymatic tests), respectively. […] Positive controls were carried out with chloramphenicol (bacteria), nystatin (yeast), clotrimazole (fungi), tamoxifen citrate (cell lines), rolipram (PDE-4B2), huperzine (AchE), and TDZD-8 (GSK-3β).
A short description of data set [2]: in vitro.
Data set [3] has as its system Staphylococcus epidermidis (DSM 20044). The data set can be described thus: Antibiotic activity against Staphylococcus epidermidis. Particulars: DSM20044, growth inhibition, 0.1–50 µM analyzed twice in duplicates, read-out: IC50, antibiotic activity, S. epidermidis. The data set is classed as cell-based.
Protocol: (§1) The antimicrobial activities of 1–13 against the bacterium Bacillus subtilis (DSM 347) and the human pathogenic yeast Candida albicans (DSM 1386) were determined according to Ohlendorf et al., 2012 [26].The bioassays using the clinically relevant bacterial strains Staphylococcus epidermidis (DSM 20044), the methicillin-resistant Staphylococcus aureus (MRSA) (DSM 18827), and Klebsiella pneumoniae DSM 30104 were performed as described by Silber et al., 2013 [27]. S. aureus and K. pneumoniae were investigated in the same manner as S. epidermidis. […] The concentration of the compounds used in the initial bioassays was 100 µM (antibiotic tests), 50 µM (cytotoxic tests), and 10 µM (enzymatic tests), respectively. […] Positive controls were carried out with chloramphenicol (bacteria), nystatin (yeast), clotrimazole (fungi), tamoxifen citrate (cell lines), rolipram (PDE-4B2), huperzine (AchE), and TDZD-8 (GSK-3β).
The test system of data set [4] is methicillin-resistant Staphylococcus aureus (MRSA) (DSM 18827). The data set is described as follows: Antibiotic activity against methicillin-resistant Staphylococcus aureus. Type of data set: cell-based. Conditions: read-out: IC50, S. aureus MRSA.
Protocol: as §1
Data set [5] has as its system Bacillus subtilis (DSM 347). The data set can be described thus: Antibiotic activity against Bacillus subtilis. The data set is classed as cell-based. Conditions: DSM347, growth inhibition, 0.1–50 µM analyzed twice in duplicates, read-out: IC50, antibiotic activity, B. subtilis.
Protocol: as §1
Where [6] appears, read: growth inhibition, 0.1–50 µM analyzed twice in duplicates.
[7] abbreviates: NIH-3T3 fibroblast cells, mouse fibroblasts cell line, 0.1–50 µM analyzed twice in duplicates, read-out: IC50, cytotoxic activity, NIH-3T3.
[8] abbreviates: human, HepG2 hepatocellular carcinoma cells.

Structures can show the parent of a compound that is named as a salt. Where two headings read alike, the source gives them in different places.

As to `CC/C(=C(\c1ccccc1)c1ccc(OCCN(C)C)cc1)c1ccccc1` [tamoxifen citrate, reference compound], the IC50 (as a rule, the midpoint of a concentration-inhibition curve) came to 16.4 µM in data set [1] (mouse) and 17.9 µM in data set [2] (human).

With `CC1CCC2C(C)(C)C(O)CCC2(C)C12Cc1c(O)cc3c(c1O2)CN(C1OCc2cc(O)c4c(c21)OC1(C4)C(C)CCC2C(C)(C)C(O)CCC21C)C3=O` (stereo not shown) [Compound 2, stachyin B], the IC50 in data set [3] worked out at 1.02 µM; in data set [4] (setting [6]), 1.75 µM; in data set [1] (setting [7]), 13 µM; in data set [5], 1.42 µM; in data set [2] (setting [8]), 14.3 µM.

For `CC(C)=CCC/C(C)=C/CC/C(C)=C/Cc1c(O)cc(C)c(C=O)c1O` [Compound 13, ilicicolin B], the IC50 in data set [3] was 3.18 µM; in data set [4] (setting [6]) it was 0.74 µM; in data set [1] (setting [7]), 30 µM; in data set [5], 1.06 µM; in data set [2] (setting [8]) it was more than 50 µM.

Turning to `O=C(N[C@H](CO)[C@H](O)c1ccc([N+](=O)[O-])cc1)C(Cl)Cl` [Chloramphenicol, chloramphenicol, reference compound], the IC50 was 1.81 µM in data set [3], 2.46 µM in data set [4] and 1.45 µM in data set [5].

For the compound `C[C@H]1CC[C@@H]2C(C)(C)[C@@H](O)[C@H](O)C[C@@]2(C)[C@]12Cc1c(O)cc3c(c1O2)CN(CCCCC(C(=O)O)N1Cc2c(cc(O)c4c2O[C@@]2(C4)[C@@H](C)CC[C@@H]4C(C)(C)[C@@H](O)[C@@H](O)C[C@]42C)C1=O)C3=O` (stereo partly shown) [Compound 11, stachybocin B], the IC50 in data set [3] is 4.44 µM; in data set [4] (setting [6]), 3.94 µM; in data set [1] (setting [7]), more than 50 µM; in data set [5] it was 1.77 µM; in data set [2] (setting [8]), more than 50 µM.

For `C[C@H]1CC[C@@H]2C(C)(C)[C@@H](O)CC[C@@]2(C)[C@]12Cc1c(O)cc3c(c1O2)CN(CCCCC(C(=O)O)N1Cc2c(cc(O)c4c2O[C@@]2(C4)[C@@H](C)CC[C@@H]4C(C)(C)[C@@H](O)CC[C@]42C)C1=O)C3=O` (stereo partly shown) [Compound 12, stachybocin A], the IC50 in data set [3] was 2.84 µM; in data set [4] it was 3.71 µM; in data set [1] (mouse fibroblasts cell line, 0.1–50 µM analyzed twice in duplicates, read-out: IC50, cytotoxic activity, NIH-3T3), more than 50 µM; in data set [5] it was 2.03 µM; in data set [2], more than 50 µM.

For the origin of these results see PMC4012445, “Spirocyclic Drimanes from the Marine Fungus Stachybotrys sp. Strain MF347” (Marine Drugs, 2014).
